Source: patent US12084472B2 (Ardelyx, Inc., priority 2015, dated 2024)

Target: T1, human TGR5 (Homo sapiens, UniProt Q8TDU6)
T1 construct: expressed in transfected cells; host or cells: HEK293
T1 sequence (Q8TDU6 1-330): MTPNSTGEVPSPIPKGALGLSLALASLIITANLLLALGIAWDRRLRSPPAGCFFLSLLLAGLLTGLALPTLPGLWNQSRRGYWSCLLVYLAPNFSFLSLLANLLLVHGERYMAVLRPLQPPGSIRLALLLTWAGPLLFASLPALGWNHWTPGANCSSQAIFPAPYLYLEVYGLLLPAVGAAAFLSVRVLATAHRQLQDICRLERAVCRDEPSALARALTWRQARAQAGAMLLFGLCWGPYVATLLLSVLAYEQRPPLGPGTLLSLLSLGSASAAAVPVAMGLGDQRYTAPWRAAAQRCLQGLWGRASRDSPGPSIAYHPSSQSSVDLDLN
Assay: Cell-based TGR5 assay (cAMP generation, HTRF)
Conditions: HEK293 cells stably transfected with human TGR5; cAMP by HTRF; 30 minutes at 37° C.; read-out: pEC50 Human TGR5 (converted)
In short: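 Read-out was HTRF detection of cAMP, converted to concentration via a standard curve and fitted (3-parameter logistic) for pEC50 and maximal response. Agonist stimulation used HEK293 cells stably transfected with human TGR5, incubated 30 min at 37° C in IBMX-containing buffer at 0.05 nM to 10 μM compound.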

First: Cc1ccc(SCCCCC(=O)NC[C@H](O)[C@@H](O)[C@H](O)[C@H](O)CO)nc1CNC1(c2cnccc2-c2ccccc2OC2CC2)CC1 [Compound I-645, 5-({6-[({1-[4-(2-cyclopropoxyphenyl)pyridin-3-yl]cyclopropyl}amino)methyl]-5-methylpyridin-2-yl}sulfanyl)-N-[(2S,3R,4R,5R)-2,3,4,5,6-pentahydroxyhexyl]pentanamide]
Second: Cc1ccc(CCCCC(=O)N(C)C[C@H](O)[C@@H](O)[C@H](O)[C@H](O)CO)nc1COC1(c2cnccc2-c2ccccc2OC2CC2)CC1 [Compound I-709]
The EC50 of the first is lower: < 100 nM for the first, 1260 to 10000 nM for the second.

Compared with `CC(=O)NCCCCN(CCCCSc1ccc(Cl)c(CNC2(c3cnccc3-c3ccccc3OC3CC3)CC2)c1)C(=O)[C@@H](O)[C@@H](O)[C@H](O)[C@@H](O)CO` [Compound I-567, (2S,3S,4R,5S)-N-[4-({4-chloro-3-[({1-[4-(2-cyclopropoxyphenyl)pyridin-3-yl]cyclopropyl}amino)methyl]phenyl}sulfanyl)butyl]-N-(4-acetamidobutyl)-2,3,4,5,6-pentahydroxyhexanamide], `CS(=O)(=O)NCCCCN(CCCCSc1ccc(Cl)c(COC2(c3cnccc3-c3ccccc3OC3CC3)CC2)c1)C(=O)[C@@H](O)[C@@H](O)[C@H](O)[C@@H](O)CO` [Compound I-570, (2S,3S,4R,5S)-N-(4-{[4-chloro-3-({1-[4-(2-cyclopropoxyphenyl)pyridin-3-yl]cyclopropoxy}methyl)phenyl]sulfanyl}butyl)-2,3,4,5,6-pentahydroxy-N-(4-methanesulfonamidobutyl) hexanamide] is lower in EC50: 126 to 1000 nM for the first, < 100 nM for the second.

`Cc1cc(COC2(c3cnccc3-c3ccccc3OC3CC3)CC2)c(Cl)cc1CCCCN(CCOCCO)C(=O)NC[C@H](O)[C@@H](O)[C@H](O)[C@H](O)CO` [Compound I-117, 1-{4-[5-chloro-4-({1-[4-(2-cyclopropoxyphenyl)pyridin-3-yl]cyclopropoxy}methyl)-2-methylphenyl]butyl}-1-[2-(2-hydroxyethoxy)ethyl]-3-[(2S,3R,4R,5R)-2,3,4,5,6-pentahydroxyhexyl]urea] and `CN(C)C[C@H](NC(=O)CCCCc1cc(Cl)c(COC2(c3cnccc3-c3ccccc3OC3CC3)CC2)cc1Cl)[C@@H](O)[C@H](O)[C@H](O)CO` [Compound I-165, 5-[2,5-dichloro-4-({1-[4-(2-cyclopropoxyphenyl)pyridin-3-yl]cyclopropoxy}methyl)phenyl]-N-[(2S,3R,4S,5R)-1-(dimethylamino)-3,4,5,6-tetrahydroxyhexan-2-yl]pentanamide] cannot be ordered by EC50: < 100 nM for the first, < 100 nM for the second.

`CC(CCCN(CCCN1CCCC1=O)C(=O)[C@@H](O)[C@@H](O)[C@H](O)[C@@H](O)CO)c1ccc(Cl)c(CNC2(c3cnccc3-c3ccccc3OC3CC3)CC2)c1` (stereo partly drawn) [Compound I-294, (2S,3S,4R,5S)-N-(4-{4-chloro-3-[({1-[4-(2-cyclopropoxyphenyl)pyridin-3-yl]cyclopropyl}amino)methyl]phenyl}pentyl)-2,3,4,5,6-pentahydroxy-N-[3-(2-oxopyrrolidin-1-yl)propyl]hexanamide] and `COCCCN(C[C@H](O)[C@@H](O)[C@H](O)[C@H](O)CO)C(=O)CCCC(C)c1ccc(Cl)c(CNC2(c3cnccc3-c3ccccc3OC3CC3)CC2)c1` (stereo partly drawn) [Compound I-338, 5-{4-chloro-3-[({11-[4-(2-cyclopropoxyphenyl)pyridin-3-yl]cyclopropyl}amino)methyl]phenyl}-N-(3-methoxypropyl)-N-[(2S,3R,4R,5R)-2,3,4,5,6-pentahydroxyhexyl]hexanamide] cannot be ordered by EC50: < 100 nM for the first, < 100 nM for the second.

First: CC(CCCCN)c1ccc(Cl)c(CNC2(c3cnccc3-c3ccccc3OC3CC3)CC2)c1 (single isomer, unassigned) [Compound I-244]
Second: CC(C)(CC(=O)O)CC(=O)N(CCCCc1cc(Cl)c(CNC2(c3cnccc3-c3ccccc3OC3CC3)CC2)cc1Cl)C[C@H](O)[C@@H](O)[C@H](O)[C@H](O)CO [Compound I-201, 4-[(4-{2,5-dichloro-4-[({1-[4-(2-cyclopropoxyphenyl)pyridin-3-yl]cyclopropyl}amino)methyl]phenyl}butyl)[(2S,3R,4R,5R)-2,3,4,5,6-pentahydroxyhexyl]carbamoyl]-3,3-dimethylbutanoic acid]
The EC50 of the first is lower: 126 to 1000 nM for the first, 1260 to 10000 nM for the second.
